# Laboratory results: PubChem BioAssay (NCI)
#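 Exposure lasted 48 hours, with cells grown in 96-well plates and compounds tested at five concentrations. GI50 = concentration required for 50% inhibition of growth. TGI marks complete inhibition of growth.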
# Experiments:
# Test in all cases: inhibition of tumour cell growth, NCI panel, 48 h
# MALME-3M melanoma = test system: MALME-3M melanoma
# CAKI-1 renal = test system: CAKI-1 renal
# K-562 leukemia = test system: K-562 leukemia
# UO-31 renal = test system: UO-31 renal
# OVCAR-3 ovarian = test system: OVCAR-3 ovarian
# HCT-116 colon = test system: HCT-116 colon
# COLO 205 colon = test system: COLO 205 colon
# NCI-H226 lung = test system: NCI-H226 lung
# NCI/ADR-RES ovarian = test system: NCI/ADR-RES ovarian
# SR leukemia = test system: SR leukemia
SMILES,TGI (MALME-3M melanoma) [µM],TGI (CAKI-1 renal) [µM],TGI (K-562 leukemia) [µM],TGI (UO-31 renal) [µM],TGI (OVCAR-3 ovarian) [µM],TGI (HCT-116 colon) [µM],TGI (COLO 205 colon) [µM],TGI (NCI-H226 lung) [µM],TGI (NCI/ADR-RES ovarian) [µM],TGI (SR leukemia) [µM],GI50 (MALME-3M melanoma) [µM],GI50 (CAKI-1 renal) [µM],GI50 (K-562 leukemia) [µM],GI50 (UO-31 renal) [µM],GI50 (OVCAR-3 ovarian) [µM],GI50 (HCT-116 colon) [µM],GI50 (COLO 205 colon) [µM],GI50 (NCI-H226 lung) [µM],GI50 (NCI/ADR-RES ovarian) [µM],GI50 (SR leukemia) [µM]
Cc1cc2c(=O)cc(-c3ccc(Cl)cc3)oc2c(C(=O)O)c1C,> 100,> 100,> 100,> 100,> 100,> 100,> 100,> 100,–,–,–,–,–,–,–,–,–,–,–,–
CC(=O)Nc1ccc(C(=O)N[C@@H]2C(=O)N3[C@@H]2SC(C)(C)[C@@H]3C(=O)O)cn1,> 100,> 100,> 100,> 100,> 100,> 100,> 100,> 100,> 100,–,–,–,–,–,–,–,–,–,–,–
Cc1c(Cl)cccc1NC(=O)C(=O)C1C(=O)NC(=O)NC1=O,> 100,> 100,> 100,> 100,> 100,> 100,> 100,> 100,–,> 100,–,–,–,–,–,–,–,–,–,–
CC(CN(CP(=O)([O-])[O-])CP(=O)([O-])[O-])N(CP(=O)([O-])[O-])CP(=O)([O-])[O-].N[C@@H]1CCCC[C@@H]1N.[Pt+2] (stereo unspecified),> 100,> 100,> 100,> 100,> 100,> 100,> 100,> 100,–,–,> 100,> 100,> 100,> 100,> 100,> 100,> 100,> 100,–,–
CCCCCCCCCCCCC(Br)C(=O)SCCNC(=O)CCNC(=O)[C@@H](O)C(C)(C)COP(=O)(O)OP(=O)(O)OCC1OC(n2cnc3c(N)ncnc32)C(O)C1OP(=O)(O)O (stereo partly specified),> 56.5,–,–,> 56.5,> 56.5,> 56.5,> 56.5,> 56.5,–,–,–,–,–,–,–,–,–,–,–,–
COc1nc2c(nc(N)n2C2OC(CO)C(O)C(O)C2O)c(=O)n1C (stereo unspecified),> 100,> 100,> 100,> 100,> 100,> 100,> 100,> 100,–,> 100,–,–,–,–,–,–,–,–,–,–
O=c1c2ccccc2nc(-c2ccc(Cl)cc2)n1O,–,> 100,> 100,5.79,> 100,> 100,> 100,> 100,58.2,–,–,–,–,–,–,–,–,–,–,–
O=C(NC(=S)NS(=O)(=O)c1ccc(N2N=C3c4ccccc4CC3C2c2cccs2)cc1)c1ccccc1 (stereo unspecified),–,77.4,–,> 100,> 100,–,> 100,–,67.1,–,–,26.1,–,41.1,30.6,–,38.4,–,18.8,–
COc1ccc2c(CNCCCCO)cc3cc4c(cc3c2c1)OCO4,4.08,2.96,20.3,4.12,4.95,9.5,4.41,1.62,8.12,–,1.65,0.628,1.07,0.21,0.984,0.609,1.36,0.638,1.45,–
CC(C)(C)c1ccccc1NS(=O)(=O)c1ccccc1,> 100,> 100,> 100,> 100,> 100,> 100,–,88.2,–,–,–,–,–,–,–,–,–,–,–,–
CCOc1ccc(NC(=O)C2=C(C)NC(C)=C(C(=O)Nc3ccc(OCC)cc3)C2c2ccc([N+](=O)[O-])cc2)cc1,> 100,> 100,> 100,> 100,> 100,–,53.3,> 100,–,–,–,–,–,–,–,–,–,–,–,–
CCCCCCCCCCCCCC(=O)OCC1OC(OC)C(NC(=O)N(CCCl)N=O)C(O)C1O (stereo unspecified),56.8,> 100,56.8,51.7,53.2,38.2,98.5,75.7,–,26.7,–,–,–,–,–,–,–,–,–,–
CN(C)/[N+]([O-])=N/Oc1cc(Nc2ccc(C(=O)O)cc2)c([N+](=O)[O-])cc1[N+](=O)[O-],–,51.7,> 100,67.3,–,41.6,63.5,70.4,> 100,> 100,–,22.1,38.2,25.6,–,20.9,28.2,27.4,29.8,51.3
Cc1cc(S(N)(=O)=O)c(S/C(=N\NS(=O)(=O)c2ccc(Cl)cc2)c2ccc(Cl)cc2)cc1Cl,–,> 100,> 100,> 100,> 100,> 100,> 100,> 100,> 100,> 100,–,> 100,45.3,> 100,> 100,> 100,85.2,92.4,> 100,29.1
Cc1cc(Cl)ccc1NC(=O)C1C(=O)N(c2ccc(Cl)cc2C)C(=O)/C1=N\N (stereo unspecified),> 100,> 100,> 100,> 100,> 100,> 100,> 100,93.8,–,> 100,–,–,–,–,–,–,–,–,–,–
Cc1ccccc1NC(=O)c1[nH]c(=S)nc(N)c1-c1ccccc1C,> 100,> 100,> 100,> 100,> 100,> 100,> 100,> 100,–,> 100,–,–,–,–,–,–,–,–,–,–
O=C1C(c2ccccc2)=C(c2ccccc2)C(c2ccccc2)/C1=C1\C(=O)C(c2ccccc2)=C(c2ccccc2)C1c1ccccc1 (stereo unspecified),> 100,> 100,–,> 100,> 100,> 100,> 100,> 100,–,> 100,–,–,–,–,–,–,–,–,–,–
C[Si](C)(C)/C(Br)=C\CCN1C(=O)CCC1O (stereo unspecified),> 100,–,> 100,> 100,> 100,> 100,> 100,> 100,–,–,–,–,–,–,–,–,–,–,–,–
N#Cc1c2ccccc2c2nnc3cc(Cl)c(Cl)cc3n12,> 100,> 100,89.1,65.8,95.9,> 100,–,–,97.8,–,> 100,77.4,29,23.3,33.1,34.2,–,–,31.6,–
C/C=C/C1(NS(=O)(=O)c2ccc(C)cc2)CCC(C(C)(C)C)CC1 (stereo unspecified),49.4,98.1,99.5,62.3,34.9,36,42.3,44.4,–,32.9,–,–,–,–,–,–,–,–,–,–
